This passage reports IC50 and Kd results from the Kinase Knowledgebase extract (Sharma et al. 2016).

By IC50 is commonly meant the concentration at which inhibition is half-maximal. Lower therefore signals inhibition by little substance. Usually Kd stands for a measure of binding affinity in units of concentration. A high value points to a looser complex.

ROCK2 (human), sequence (O75116 whole entry, looked up): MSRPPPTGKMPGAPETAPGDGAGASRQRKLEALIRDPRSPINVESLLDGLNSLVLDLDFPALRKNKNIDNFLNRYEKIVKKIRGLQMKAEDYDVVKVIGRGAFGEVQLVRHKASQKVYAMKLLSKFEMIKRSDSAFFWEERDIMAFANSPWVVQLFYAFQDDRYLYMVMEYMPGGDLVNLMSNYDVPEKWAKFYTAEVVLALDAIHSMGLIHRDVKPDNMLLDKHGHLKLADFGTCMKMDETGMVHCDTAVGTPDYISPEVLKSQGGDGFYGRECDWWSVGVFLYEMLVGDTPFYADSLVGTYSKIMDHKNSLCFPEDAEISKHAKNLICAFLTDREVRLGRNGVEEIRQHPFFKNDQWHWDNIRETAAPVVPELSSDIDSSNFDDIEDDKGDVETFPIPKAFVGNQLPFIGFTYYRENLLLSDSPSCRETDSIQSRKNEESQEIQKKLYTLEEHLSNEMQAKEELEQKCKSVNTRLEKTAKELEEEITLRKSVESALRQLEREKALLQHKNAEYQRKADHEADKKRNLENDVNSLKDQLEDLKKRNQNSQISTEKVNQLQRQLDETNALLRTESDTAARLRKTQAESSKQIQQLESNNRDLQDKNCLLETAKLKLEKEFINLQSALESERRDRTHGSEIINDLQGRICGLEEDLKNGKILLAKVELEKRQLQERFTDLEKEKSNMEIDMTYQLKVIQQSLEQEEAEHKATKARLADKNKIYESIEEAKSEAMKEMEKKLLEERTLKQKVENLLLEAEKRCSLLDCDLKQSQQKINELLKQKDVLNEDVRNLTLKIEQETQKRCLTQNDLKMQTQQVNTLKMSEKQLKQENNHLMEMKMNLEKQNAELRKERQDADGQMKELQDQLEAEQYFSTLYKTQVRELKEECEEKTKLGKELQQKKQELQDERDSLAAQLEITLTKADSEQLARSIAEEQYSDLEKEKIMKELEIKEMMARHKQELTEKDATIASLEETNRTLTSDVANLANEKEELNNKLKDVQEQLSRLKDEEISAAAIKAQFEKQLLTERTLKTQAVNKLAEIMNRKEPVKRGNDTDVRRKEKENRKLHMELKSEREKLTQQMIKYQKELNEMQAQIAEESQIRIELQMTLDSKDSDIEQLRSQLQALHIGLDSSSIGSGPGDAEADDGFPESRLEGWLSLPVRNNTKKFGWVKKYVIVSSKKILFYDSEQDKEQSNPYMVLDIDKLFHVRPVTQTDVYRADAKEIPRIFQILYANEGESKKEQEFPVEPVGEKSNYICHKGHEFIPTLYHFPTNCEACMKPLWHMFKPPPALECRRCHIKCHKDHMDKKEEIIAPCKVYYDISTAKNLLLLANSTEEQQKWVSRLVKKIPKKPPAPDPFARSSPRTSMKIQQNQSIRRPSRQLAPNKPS

The assay addresses ROCK2 (human) (UniProt O75116). Briefly: Assessment of ROCK2 Kinase Activity by Luciferase Assay.
`CN(C)Cc1ccc(NC(=O)c2cccc(CNC(=O)Nc3ccc(C#N)c(Cl)c3)c2)cc1` had a concentration for half-maximal inhibition (IC50) of 0.01 µM.

Regarding `COc1ccc(C(=O)NCc2cccc(C(=O)Nc3ccc4cnccc4c3)c2)cc1OC`, the IC50 amounted to 0.685 µM. `CN(C)Cc1ccc(NC(=O)c2cccc(CNC(=O)Nc3cccc(C(N)=O)c3)c2)cc1`: the concentration for half-maximal inhibition (IC50) worked out at 0.24 µM. Still for that read-out and setting: then `COc1ccc(C(=O)NCc2cccc(C(=O)Nc3ccc(CN(C)C)cc3)c2)cc1`, with 1.3 µM. On the same count and under the same terms, then `CN(C)Cc1ccc(NC(=O)c2cccc(CNC(=O)c3ccc(OC(F)(F)F)c(Cl)c3)c2)cc1`, with 0.67 µM; and `N#Cc1ccc(NC(=O)NCc2cccc(C(=O)Nc3ccc(CN)cc3)c2)cc1`, with 0.07 µM. `COc1ccc(C(=O)NCc2cccc(C(=O)Nc3ccc(CN(C)C)cc3)c2)cc1C` registered an IC50 of 0.266 µM. Turning to `CN(C)Cc1ccc(NC(=O)c2cccc(CNC(=O)c3ccc(C#N)cc3)c2)cc1`, the IC50 was 1.7 µM. Same read-out and setting: then `COc1ccc(C(=O)NCc2cccc(C(=O)Nc3ccc4c(c3)CCNC4)c2)cc1OC`, with 0.1 µM; and `COc1ccc(NC(=O)Cc2cccc(NC(=O)CCC3CCCNC3)c2)cc1OC` (stereo unspecified), with 0.037 µM; and `COc1ccc(C(=O)NCc2cccc(C(=O)NCC3CCCO3)c2)cc1OC` (stereo unspecified), with 1200 µM. Still for that read-out and setting: then `COc1ccc(CC(=O)Nc2cccc(C(=O)NCCC3CCCNC3)c2)cc1OC` (stereo unspecified), with 3.2 µM.

For `COc1ccc(C(=O)NCc2cccc(C(=O)NCCC3CCCN(C)C3)c2)cc1OC` (stereo unspecified), the 50% inhibitory concentration (IC50) turned out to be 0.102 µM. The same measure, in the same setting: under `N#Cc1ccc(NC(=O)NCc2cccc(C(=O)NCCC3CCNCC3)c2)cc1` stands 0.065 µM. On the same count and under the same terms, under `CN(C)Cc1ccc(NC(=O)c2cccc(CNC(=O)Nc3ccc(C(N)=O)c(Cl)c3)c2)cc1` stands 0.074 µM. The compound `COc1ccc(C(=O)NCc2cccc(C(=O)NCCC3CCCNC3)c2)cc1OC` (stereo unspecified) gave a Kd of 0.018 µM. The compound `N#Cc1ccc(NC(=O)NCc2cccc(NC(=O)CCC3CCCNC3)c2)cc1` (stereo unspecified) came in with a 50% inhibitory concentration (IC50) of 0.11 µM. On the same count and under the same terms, then `COc1ccc(C(=O)NCc2cccc(C(=O)Nc3ccc(CN(C)C)cc3)c2)cc1C(F)(F)F`, with 0.16 µM. Same read-out and setting: then `COc1ccc(NC(=O)NCc2cccc(C(=O)NCCC3CCCNC3)c2)cc1OC` (stereo unspecified), with 1.6 µM. The compound `COc1ccc(C(=O)NCc2cccc(C(=O)Nc3ccc4c(c3)CNCC4)c2)cc1OC` had a Kd of 0.007 µM.

As for `CN(C)Cc1ccc(NC(=O)c2cccc(CNC(=O)Nc3ccc(C(N)=O)cc3)c2)cc1`, the 50% inhibitory concentration (IC50) worked out at 0.008 µM.
